Measured values taken from patent US10966425B2, “Fungicidal compositions” (SYNGENTA PARTICIPATIONS AG, priority 2016, dated 2021).

Tested on: not given
Assay: not given
Conditions: not given

Structure (SMILES) | melting point [°C]
Cc1cccc2c1ncn2C1=NC(C)(C)C(C)(C)c2c(F)cccc21 [Compound E-1] | 45 to 46
Cc1c(Cl)ccc2c1ncn2C1=NC(C)(C)C(C)(C)c2c(F)cccc21 [Compound E-42] | 102 to 103
Cc1c(F)ccc2c1ncn2C1=NC(C)(C)C(F)(F)c2ccccc21 [Compound E-32] | 118 to 121
Cc1cccc2c1ncn2C1=NC(C)(C)Cc2c(Br)cccc21 [Compound E-38] | 52 to 54
CC1(C)N=C(n2cnc3c(Cl)cccc32)c2ccc(Cl)cc2C1(F)F [Compound E-37] | 197 to 200
Cc1ccc2c(ncn2C2=NC(C)(C)C(=O)c3ccccc32)c1C [Compound E-25] | 159 to 161
Cc1cccc2c1ncn2C1=NC(C)(C)C(=O)c2ccccc21 [Compound E-10] | 123 to 125
Cc1cccc2c1ncn2C1=NC(C)(C)C(C)(C)c2c(F)cccc21 [X.011] | 118 to 120
Cc1ccc2c(ncn2C2=NC3(CC3)C3(CC3)c3ccccc32)c1C [Compound E-58] | 141 to 143
CC1(C)N=C(n2cnc3cc(Cl)c(Cl)cc32)c2cccc(F)c2C1(C)C [Compound E-39] | 126 to 127
Cc1ccc2c(ncn2C2=NC(C)(C)Cc3cc(F)ccc32)c1C [Compound E-57] | 143 to 145
COC(=O)c1cccc2c1ncn2C1=NC(C)(C)C(C)(C)c2c(F)cccc21 [Compound E-24] | 178 to 179
Cc1cccc2c1ncn2C1=NC(C)(C)C(=O)c2cc(Cl)ccc21 [Compound E-34] | 129 to 133
CCc1cccc2c1ncn2C1=NC(C)(C)C(C)(C)c2c(F)cccc21 [Compound E-14] | 87 to 88
Cc1cccc2c1ncn2C1=NC(C)(C)C(C)(C)c2c1ccc(F)c2F [Compound E-46] | 122 to 125
CC1(C)N=C(n2cnc3c(F)c(F)ccc32)c2cccc(F)c2C1(C)C [Compound E-50] | 112 to 114
CC1(C)N=C(n2cnc3c4c(ccc32)CCC4)c2cccc(F)c2C1(C)C [Compound E-51] | 177 to 178
C=Cc1cccc2c1ncn2C1=NC(C)(C)C(C)(C)c2c(F)cccc21 [Compound E-13] | 70 to 71
Cc1cccc2c1ncn2C1=NC(C)(C)C(C)(C)c2c1ccc(Cl)c2F [Compound E-45] | 147 to 151
Cc1cccc2c1C(=O)C(C)(C)N=C2n1cnc2c(C)cccc21 [Compound E-26] | 96 to 101
Cc1c(F)ccc2c1ncn2C1=NC(C)(C)C(=O)c2cc(Cl)ccc21 [Compound E-35] | 133 to 136
CC(C)c1cccc2c1ncn2C1=NC(C)(C)C(C)(C)c2c(F)cccc21 [Compound E-12] | 113 to 114
Cc1c(Br)ccc2c1ncn2C1=NC(C)(C)C(C)(C)c2c(F)cccc21 [Compound E-41] | 122 to 124
Cc1cccc2c1C(=O)C(C)(C)N=C2n1cnc2c(C)c(C)ccc21 [Compound E-27] | 145 to 149
CC1(C)N=C(n2cnc3c(Br)cccc32)c2cccc(F)c2C1(C)C [Compound E-4] | 48 to 49
Cc1ccc2c(ncn2C2=NC(C)(C)C(=O)c3cc(Cl)ccc32)c1C [Compound E-36] | 196 to 199
Cc1cccc2c1ncn2C1=NC2(CCC2)Cc2ccccc21 [Compound E-43] | 132 to 133
CC1(C)N=C(n2cnc3c(Cl)cccc32)c2cccc(F)c2C1(C)C [Compound E-17] | 50 to 51
Cc1cccc2c1ncn2C1=NC(C)(C)C(F)(F)c2ccccc21 | 142 to 149

Tested on: Pyrenophora teres
Assay: Pyrenophora teres / barley / leaf disc preventative (net blotch)
Format: in vivo
Conditions: 200 ppm, barley leaf segments cv. Hasso, 5-7 days after application
Experimental: Barley leaf segments cv. Hasso are placed on agar in a multiwell plate (24-well format) and sprayed with the formulated test compound diluted in water. The leaf segments are inoculated with a spore suspension of the fungus 2 days after application. The inoculated leaf segments are incubated at 20° C. and 65% rh under a light regime of 12 h light/12 h darkness in a climate cabinet and the activity of a compound is assessed as disease control compared to untreated when an appropriate level of disease damage appears in untreated check leaf segments (5-7 days after application).

Structure (SMILES) | control of Pyrenophora teres
Cc1cccc2c1ncn2C1=NC(C)(C)C(C)(C)c2ccccc21 [Compound E-16] | at least 80%
